Values after ≈ are worked out from the molar mass of the structure shown. Where two headings read alike, the source gives them in different places. Marks after values point to notes of the source that are not given here.

The subject of experiment [1] is S. aureus ATCC 43300. As to the kind of experiment: Time-killing curves. The format is cell-based, Staphylococcus aureus. The method, then: S. aureus ATCC 43300 was cultured to the logarithmic stage, MHB medium was used for adjusting the concentration of bacterial suspension, and PN7 (1×, 2× and 4× MIC), Plectasin (1×, 2× and 4× MIC) and 2× MIC vancomycin (the MIC was 1 μg/mL) were added into the suspensions containing 10^5 CFU/mL bacteria (after the count of viable bacteria detection, the initial inoculation amount was 5.15 Log10 CFU/mL), cultured at 37 °C and 250 rpm. A 100 CFU/mL is considered the detection limit. […] In contrast, the count was reduced by 1.6 Log10 CFU/mL after treatment with 2× MIC vancomycin, an approximately 66% population decrease of target pathogens compared with the PN7 treatment group at the same time point of the second hour. After 4 h, the colony number of the peptide treatment group was almost 0, while that of the vancomycin treatment group was 0 after 8 h, at 4 h later than the PN7 treatment. At 24 h, the number of colonies of only 1× MIC Plectasin treatment group rebounded, while no such phenomenon occurred in the other treatment groups.
S. aureus ATCC 43300 was cultured to the logarithmic stage. MHB medium adjusted the concentration of bacterial suspension, and PN7 (1×, 2× and 4× MIC) was added into the suspensions containing 10^5 CFU/mL bacteria, cultured at 37 °C and 250 rpm. 1×, 2×, 4× MIC Plectasin and 2× MIC vancomycin were used as positive controls, and the group treated without antibiotics was used as the blank controls. Then, 100 μL samples were taken at different time points and were continuously diluted and coated on MHA medium for colony counting. A 100 CFU/mL is considered the detection limit.

In experiment [2] the test system is S. aureus ATCC 43300. As to the kind of experiment: Membrane permeability, PI staining by FACS. The conditions noted are these: 2× MIC, 10^8 CFU/mL, 37 °C. In kind it is cell-based, Staphylococcus aureus. The method, then:
Figure 8 In vitro antimicrobial analysis of PN7. (A): Time-kill curve of PN7, Plectasin, and vancomycin against S. aureus ATCC. All experiments were performed in triplicate. (B): The PAE of 1×, 2× and 4× MIC of PN7 and vancomycin against S. aureus ATCC 43300 (the MIC values of PN7 and vancomycin against S. aureus ATCC 43300 were 8 μg/mL and 1μg/mL, respectively). All experiments were performed in triplicate. (C): The morphological influence of PN7 on S. aureus ATCC 43300 was observed by SEM. (D,E): The effects of PN7 (D) and Plectasin (E)) on membrane permeability were analyzed by FACS. The logarithmic phase S. aureus ATCC 43300 cells (10^8 CFU/mL) were incubated with or without 2× MIC peptide solutions at 37 °C at different times. All experiments were performed in triplicate. Ple stands for the Plectasin treatment group, Van stands for the vancomycin treatment group, and CK stands for the untreated group. TEXT PRINTED IN THE PICTURE: (D) PN7: 34.4% (2×; 90min); 31.2% (2×; 75min); 30.4% (2×; 60min); 19.2% (2×; 45min); 16.7% (2×; 30min); 1.94% (2×; 15min) | (E) Ple: 32.0% (2×; 90min); 27.4% (2×; 75min); 25.2% (2×; 60min); 12.8% (2×; 45min); 12.0% (2×; 30min); 2.11% (2×; 15min) DOUBTS OF THE COPYIST ABOUT THIS PICTURE: Panels D and E: the picture prints no measure for the percentages, only labels such as "2×PN7-90min: 34.4%" / Panels D and E: "CK: 0.54%" is the untreated control, not a substance, and was left out
The fluorescent dye propidium iodide (PI; Solarbio, Beijing, China) was used to detect the effect of PN7 on the membrane permeability of Staphylococcus aureus. The test method refers to the descriptions in previous studies.

The subject of the next experiment is E. coli O157. The conditions noted are these: data cited from previous results; cited from earlier work. The text has this: (§1) Table 6 Antibacterial spectrum (MIC). | column: MIC (μg/mL) / Plectasin
The subject of experiment [3] is Escherichia coli CVCC 195. The following applies: data cited from previous results; cited from earlier work.
Excerpt: as §1

Another experiment deals with P. aeruginosa CICC 21630. The conditions noted are these: data cited from previous results; cited from earlier work.
Excerpt: as §1

The subject of another experiment is S. aureus CVCC 546. The conditions noted are these: data cited from previous results; cited from earlier work.
Excerpt: as §1

For a further experiment, the system named is S. aureus E48. The following applies: data cited from previous results; cited from earlier work.
Excerpt: as §1

For a further experiment, the system named is S. pullorum CVCC 1789. The following applies: data cited from previous results; cited from earlier work.
Excerpt: as §1

Experiment [4] deals with Staphylococcus aureus ATCC 43300. The conditions noted are these: data cited from previous results; cited from earlier work.
Excerpt: as §1

Experiment [5] relates to Streptococcus. suis CVCC 606. The following applies: data cited from previous results; cited from earlier work.
Excerpt: as §1

Experiment [6] has as its system Staphylococcus aureus ATCC 43300. Nature of the experiment: microbe, parasite or virus in culture. The format is cell-based. The conditions noted are these: Staphylococcus aureus, ATCC43300; microtiter broth dilution, MHB, 10^5 CFUs/mL, 16–18 h at 37 °C; read-out: MIC. The protocol: The experimental operation of the expression of the Plectasin variant in P. pastoris in well plates, shaking flasks, and 5 L level fermentation was performed as referenced in previous studies. Candidates were identified through three different levels of screening. Firstly, a large number of transformants were screened through well plates to induce expression and determined by the inhibition zone assay (against S. aureus ATCC 43300). Secondly, the transformants with obvious inhibition zones were sequenced to obtain protein sequence information, then induced expression at the shake level. The supernatant was collected and purified to obtain the target protein; the anti-Staphylococcus aureus activity of the protein was detected by a MIC assay. Finally, the codons of candidate sequences were optimized, the expression vector was reconstructed, the optimal transformers were obtained, and the high-density cultivation was performed in a 5 L fermenter. The final agent was determined by high protein yield and good activity (Figure 2).
The MIC value of PN7 against bacteria was determined by the microtiter broth dilution method. Briefly, bacteria grown to the exponential phase were diluted into MHB; subsequently, 90 μL of bacterial suspension (10^5 CFUs/mL) was mixed with 10 μL of different concentrations of PN7 in a sterilized 96-well microtiter plate (Nunc). MIC values were recorded after incubation for 16–18 h at 37 °C based on the lowest concentrations of peptides in which no visible bacterial growth was observed.

Experiment [7] has as its system S. aureus ATCC 43300. As to the kind of experiment: Post antibiotic effect (PAE). In kind it is cell-based, Staphylococcus aureus. The following applies: triplicate. The text has this: The post-antibiotic effect reflects the inhibitory effect on the growth of pathogenic bacteria after short contact with drugs, which is related to the strength of the bactericidal activity of drugs. The test method of the PAE of PN7 against S. aureus ATCC 43300 refers to the descriptions in previous studies.

On to `CC[C@H](C)[C@@H]1NC(=O)[C@H](CO)NC(=O)[C@H](CCCCN)NC(=O)[C@@H]2CSSC[C@@H](C(=O)N[C@@H](Cc3ccc(O)cc3)C(=O)O)NC(=O)[C@H](CCCCN)NC(=O)[C@@H]3CSSC[C@H](NC(=O)[C@H](CCC(N)=O)NC(=O)[C@H](CCSC)NC(=O)[C@H](CC(=O)O)NC(=O)[C@H](CC(=O)O)NC(=O)[C@H](CCC(=O)O)NC(=O)[C@H](CC(=O)O)NC(=O)[C@H](Cc4c[nH]c5ccccc45)NC(=O)[C@@H]4CCCN4C(=O)CNC(=O)[C@H](CC(N)=O)NC(=O)[C@@H](NC(=O)CNC(=O)[C@H](Cc4ccccc4)NC(=O)CN)CSSC[C@H](NC(=O)[C@H](Cc4ccc(O)cc4)NC(=O)CNC(=O)CNC(=O)[C@H](CCCCN)NC(=O)[C@H](Cc4ccc(O)cc4)NC(=O)CNC(=O)[C@H](CCCCN)NC1=O)C(=O)N[C@@H](C)C(=O)N[C@@H](CCCCN)C(=O)NCC(=O)NCC(=O)N[C@@H](Cc1ccccc1)C(=O)N[C@@H](C(C)C)C(=O)N3)C(=O)N[C@@H](Cc1c[nH]cn1)C(=O)N[C@@H](CC(N)=O)C(=O)N[C@@H](Cc1c[nH]cn1)C(=O)N2` [Plectasin], for which the “number of colonies at 24 h” value in the experiment on S. aureus ATCC 43300 [1] (1× MIC, time-kill) was “rebounded”. Further, the “PI-staining percentage of cells” value is on record as 12.0% in the experiment on S. aureus ATCC 43300 [2] (30 min), 25.2% in the experiment with S. aureus ATCC 43300 [2] (60 min) and 32.0% in the experiment with S. aureus ATCC 43300 [2] (90 min). Besides, the MIC in the experiment with E. coli O157 was >128 ^a μg/mL; in experiment [3], >128 ^a μg/mL; with P. aeruginosa CICC 21630, >128 ^a μg/mL; in the experiment on S. aureus CVCC 546, 16 ^a μg/mL; in the experiment with S. aureus E48 it was 4 ^a μg/mL; with S. pullorum CVCC 1789 it was >128 ^a μg/mL. Further, the MIC in experiment [4] was 4 ^a μg/mL; in [5], 1 ^a μg/mL.

For `CN[C@H](CC(C)C)C(=O)N[C@H]1C(=O)N[C@@H](CC(N)=O)C(=O)N[C@H]2C(=O)N[C@H]3C(=O)N[C@H](C(=O)N[C@H](C(=O)O)c4cc(O)cc(O)c4-c4cc3ccc4O)[C@H](O)c3ccc(c(Cl)c3)Oc3cc2cc(c3O[C@@H]2O[C@H](CO)[C@@H](O)[C@H](O)[C@H]2O[C@H]2C[C@](C)(N)[C@H](O)[C@H](C)O2)Oc2ccc(cc2Cl)[C@H]1O` [vancomycin, reference compound], the MIC in experiment [6] worked out at 1 µg/mL (≈ 0.69 µM). The “reduction of bacterial counts during the first two hours” value in the experiment on S. aureus ATCC 43300 [1] (2× MIC, initial inoculum 5.15 Log10 CFU/mL, MHB, 37 °C, 250 rpm, triplicate) is 1.6 Log10 CFU/mL. In addition, the “time to kill 99% of S. aureus ATCC 43300” value in the experiment on S. aureus ATCC 43300 [1] (time-kill, 2× MIC) is given as 8 h. In addition, in the experiment on S. aureus ATCC 43300 [1] (time-kill, detection limit 100 CFU/mL, vancomycin at 2× MIC), the “time after which the colony number was (almost) 0” value worked out at 8 h. Besides, the PAE is 0.11 h with S. aureus ATCC 43300 [7] (1× MIC), 0.54 h in the experiment on S. aureus ATCC 43300 [7] (2× MIC) and 0.78 h in the experiment with S. aureus ATCC 43300 [7] (4× MIC).

Source of the values: paper PMC10451632, “Site Mutation Improves the Expression and Antimicrobial Properties of Fungal Defense” (Antibiotics, 2023).
